Assay results: patent US10329304B2, “Compounds and methods for inhibition of hedgehog signaling and phosphodiesterase” (Vanderbilt University, priority 2014, dated 2019)
Values joined by “and” are separate entries in the source; they are usually repeats but may differ in a detail not shown here. Identical values can stand only once. Like-named read-outs stand apart in the source and are kept apart here.

Key:
B16F11 = assay: Cell viability assay (CellTiter-Blue, 72 hr); format: cell-based, Mouse; settings: Mus musculus, B16-F10; Table 10; read-out: CELL KILLING EC50 (μM) Melanoma B16F10
Experimental: (§1) Cancer cell lines were seeded in 96 well tissue culture plate at a low density (10,000 cells per well) and treated with varying concentrations of Eggmanone. After 72 hr incubation, CellTiter-Blue Cell Viability Assay (Promega, Madison, Wis.) was then performed according to manufacturer's protocol. Absorbance was then measured in a Modulus Microplate reader (Promega, Madison, Wis.) at 590 nm and compared to cells treated with DMSO.
(§2) Cancer cell lines were seeded in 96 well tissue culture plate at a low density and treated with varying concentrations of compounds identified in Table 7. After 72 hr incubation, CellTiter-Blue Cell Viability Assay (Promega, Madison, Wis.) was then performed according to manufacturer's protocol. Absorbance was then measured in a Modulus Microplate reader (Promega, Madison, Wis.) at 590 nm and compared to cells treated with DMSO.

H82 = assay: Cell killing EC50 in H82 lung cancer cells (Table 10); format: cell-based; settings: human cancer cells; for EC50: NCI-H82
Experimental: It is anticipated that compounds disclosed herein could serve as an anti-tumor, anti-angiogenic, anti-metastatic, agent in the treatment of cancer. To this end, a series of clinically relevant cancer lines were assayed and the cell-killing EC50s for compounds according to the subject matter disclosed herein are provided in Table 10.

MCF7 = assay: Cell viability assay (CellTiter-Blue, 72 hr); format: cell-based; settings: human cancer cells; for EC50: MCF7, read-out: CELL KILLING EC50 (μM) Breast MCF7
Experimental: as §1, §2

PDE4D2 = target: T1, PDE4D2 (Homo sapiens, UniProt Q08499); assay: In vitro PDE assay; format: biochemical
T1 construct: purchased BPS Biosciences (San Diego, Calif.)
T1 sequence (Q08499 303-809): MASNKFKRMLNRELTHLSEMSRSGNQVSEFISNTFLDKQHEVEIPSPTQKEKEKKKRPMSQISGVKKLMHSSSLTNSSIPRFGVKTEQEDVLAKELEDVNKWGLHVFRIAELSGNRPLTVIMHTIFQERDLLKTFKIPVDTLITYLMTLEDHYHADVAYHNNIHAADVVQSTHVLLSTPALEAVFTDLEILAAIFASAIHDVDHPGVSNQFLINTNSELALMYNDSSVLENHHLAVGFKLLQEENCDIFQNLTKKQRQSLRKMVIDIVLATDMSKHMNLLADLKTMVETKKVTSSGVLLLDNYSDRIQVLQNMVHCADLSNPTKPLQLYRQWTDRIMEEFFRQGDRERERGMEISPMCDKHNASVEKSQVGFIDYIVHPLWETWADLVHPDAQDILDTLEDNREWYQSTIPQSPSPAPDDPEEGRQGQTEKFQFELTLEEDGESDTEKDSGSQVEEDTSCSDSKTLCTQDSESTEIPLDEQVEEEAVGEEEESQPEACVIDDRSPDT
Experimental: (§3) In vitro PDE profiling and dose-response assays were performed by BPS Biosciences (San Diego, Calif.). Kinetic Mechanism of inhibition studies were conducted by Millipore (St. Louis, Mo.). In brief, the PDE assay measures fluorescent polarization of FAM-AMP as FAM-cAMP is converted to FAM-AMP by PDE), the binding agent.
(§4) A series of dilutions of the test compound were prepared with 10% DMSO in assay buffer and 5 μl of the dilution was added to a 50 μl reaction so that the final concentration of DMSO is 1% in all of reactions. All of the PDE enzymatic reactions were conducted in duplicate at room temperature for 60 minutes in a 50 μl mixture containing PDE assay buffer (10 mM Tris-HCl, pH7.4, 10 mM MaCl2, 0.05% Tween 20), 100 nM FAM-cAMP, a PDE enzyme and a test compound.
(§5) After the enzymatic reaction, 100 μl of a binding solution (1:100 dilution of the binding agent, which contains the nano beads that recognize FAM-AMP, with the binding agent diluent) was added to each reaction and the reaction was performed at room temperature for 60 minutes. Fluorescence intensity was measured at an excitation of 485 nm and an emission of 528 nm using a Tecan Infinite M1000 microplate reader. Assays done by Millipore were conducted similarly with changes noted below: […]

PDE4D3 = target: T2, PDE4D3 (Homo sapiens, UniProt Q08499); assay: In vitro PDE assay; format: biochemical
T2 construct: purchased BPS Biosciences (San Diego, Calif.); kinetic studies by Millipore (St. Louis, Mo.)
T2 sequence (Q08499 1-673 isoform Q08499-2): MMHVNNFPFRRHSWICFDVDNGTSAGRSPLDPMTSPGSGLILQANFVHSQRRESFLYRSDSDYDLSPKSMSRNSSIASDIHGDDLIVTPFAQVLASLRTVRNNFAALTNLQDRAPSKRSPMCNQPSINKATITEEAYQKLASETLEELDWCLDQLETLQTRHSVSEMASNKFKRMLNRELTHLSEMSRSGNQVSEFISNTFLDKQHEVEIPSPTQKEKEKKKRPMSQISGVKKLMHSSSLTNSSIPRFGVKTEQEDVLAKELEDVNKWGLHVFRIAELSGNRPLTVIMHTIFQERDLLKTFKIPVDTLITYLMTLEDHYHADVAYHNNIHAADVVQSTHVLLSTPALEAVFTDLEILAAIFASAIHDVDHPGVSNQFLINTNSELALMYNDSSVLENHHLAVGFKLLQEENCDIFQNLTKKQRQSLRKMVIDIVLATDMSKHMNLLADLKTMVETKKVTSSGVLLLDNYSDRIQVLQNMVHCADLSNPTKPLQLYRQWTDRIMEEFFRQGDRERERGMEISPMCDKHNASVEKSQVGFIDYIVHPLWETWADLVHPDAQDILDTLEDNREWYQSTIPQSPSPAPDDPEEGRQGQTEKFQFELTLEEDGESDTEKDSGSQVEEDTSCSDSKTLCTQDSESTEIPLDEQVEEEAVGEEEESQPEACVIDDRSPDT
Experimental: as §3, §4, §5

[1] = test system: Hedgehog signaling (Gli-Luc reporter); assay: Hh Gli-Luciferase reporter assay in Shh-Light2 cells; format: cell-based, mouse; settings: Mus musculus, Shh Light2; for EC50: read-out: Shh Light2 Luc EC50
Method in brief: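 Steady-Glo luminescence, corrected for cell titer by CellTiter-Glo, was measured after overnight exposure to compound concentrations. Signaling in Gli-Luc Shh-Light2 cells came either from Shh-conditioned medium, 3 μM purmorphamine or 20 nM SAG, or from transfected Gli-2, PDE4D3 or DN-PDE4D3 constructs.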

PC3 = assay: Cell viability assay (CellTiter-Blue, 72 hr); format: cell-based; settings: PC-3; human cancer cells; read-out: CELL KILLING EC50 (μM) Prostate PCx3
Experimental: as §1

DU145 = assay: Cell viability assay (CellTiter-Blue, 72 hr); format: cell-based, Human; settings: DU-145; human cancer cells; read-out: CELL KILLING EC50 (μM) Prostate DU145
Experimental: as §1, §2

HCT116 = assay: Cell viability assay (CellTiter-Blue, 72 hr); format: cell-based, Human; settings: HCT-116; human cancer cells; read-out: CELL KILLING EC50 (μM) Colon HTC116
Experimental: as §1, §2

RKO = assay: Cell viability assay (CellTiter-Blue, 72 hr); format: cell-based, Human; settings: for EC50: RKO
Experimental: as §1, §2

MDA-MB- 231 = assay: Cell viability assay (CellTiter-Blue, 72 hr); format: cell-based, Human; settings: MDA-MB-231; human cancer cells; read-out: CELL KILLING EC50 (μM) Breast MDA-231
Experimental: as §1, §2

HeLa = assay: Cell viability assay (CellTiter-Blue, 72 hr); format: cell-based, Human; settings: human cancer cells, read-out: CELL KILLING EC50 (μM) Cervix HeLa
Experimental: as §1, §2

DaoY = assay: Cell viability assay (CellTiter-Blue, 72 hr); format: cell-based, Human; settings: Daoy; human cancer cells; read-out: CELL KILLING EC50 (μM) Medulloblastoma DaoY
Experimental: as §1, §2

SW480 = assay: Cell viability assay (CellTiter-Blue, 72 hr); format: cell-based, Human
Experimental: as §1, §2

RWGT2 = assay: Cell viability assay (CellTiter-Blue, 72 hr); format: cell-based, Human; settings: human cancer cells; read-out: CELL KILLING EC50 (μM) Lung Squam, NSCLC RWGT2
Experimental: as §1, §2

PDE4D = PDE4D (Homo sapiens, UniProt Q08499); assay: PDE4 inhibition assay (PDE4D IC50); format: biochemical; settings: read-out: PDE4D IC50
Chain of PDE4D (Q08499 1-673 isoform Q08499-2): as above
Experimental: as §3, §4
After the enzymatic reaction, 100 μl of a binding solution (1:100 dilution of the binding agent, which contains the nano beads that recognize FAM-AMP, with the binding agent diluent) was added to each reaction and the reaction was performed at room temperature for 60 minutes. Fluorescence intensity was measured at an excitation of 485 nm and an emission of 528 nm using a Tecan Infinite M1000 microplate reader. Assays done by Millipore were conducted similarly with changes noted below:
Hedgehog signaling inhibition and PDE4 inhibition of various compounds disclosed herein was assayed as described herein above.

[2] = human cancer cells, read-out: CELL KILLING EC50 (μM) Colon RKO
[3] = SW480, human cancer cells, read-out: CELL KILLING EC50 (μM) Colon SW480

SMILES	EC50 (B16F11)	CELL KILLING EC50 (μM) Lung H82 (H82)	EC50 (MCF7)	IC50 (PDE4D2; Table 9A)	IC50 (PDE4D3; Table 9A)	EC50 ([1]; Table 9A)	EC50 (PC3)	EC50 (DU145)	EC50 (HCT116)	EC50 (RKO; [2])	EC50 (MDA-MB- 231)	EC50 (HeLa)	EC50 (DaoY)	EC50 (SW480; [3])	EC50 (RWGT2)	EC50 (H82)	EC50 ([1]; Table 9B)	also measured
C=C(C)Cn1c(SCC(=O)N2Cc3ccccc3C2)nc2sc3c(c2c1=O)CCCC3 [Formula 1KMT]	61.7 µM	UnCh	1.08 µM	46 µM	30 µM	> 20 µM	74 µM	32.4 µM	89.2 µM	75.6 µM	68.3 µM	49.7 µM	58.2 µM	4.89 µM	51.1 µM	–	–	–
C=CCn1c(SCC(=O)N2CCN(C)CC2)nc2sc3c(c2c1=O)CCCC3 [Formula 1KN7]	25.8 µM	UnCh	–	1.7 µM	1.8 µM	5 to 10 µM	45.7 µM	91.4 µM	21.3 µM	8.39 µM	10.3 µM	27.5 µM	58.6 µM	0.0574 µM	28.4 µM	–	–	CELL KILLING EC50 (μM) Breast MCF7 (MCF7): UnCh; IC50 (PDE4D): 2.1 µM and 2.08 µM; IC50 [1]: 10 µM; EC50 (RKO; 72 h, read-out: EC50 (50% reduction of viable cell count at 72 hours), Human Colon Carcinoma): 8.39 µM; EC50 (SW480; 72 h, read-out: EC50 (50% reduction of viable cell count at 72 hours), SW480, Human Colorectal Adenocarcinoma): 0.057 µM
C=C(C)Cn1c(SCC(=O)c2ccc(-c3ccccc3)cc2)nc2sc3c(c2c1=O)CCCC3 [Formula 1KXQ]	28.7 µM	UnCh	–	> 100 µM	> 100 µM	> 20 µM	41.1 µM	0.029 µM	12 µM	–	> 100 µM	12.2 µM	46.8 µM	44 µM	80.9 µM	–	–	CELL KILLING EC50 (μM) Breast MCF7 (MCF7): UnCh; CELL KILLING EC50 (μM) Colon RKO (RKO; human cancer cells): UnCh
C=CCn1c(SCC(=O)c2ccccc2)nc2sc(C)cc2c1=O [HI277]	> 100 µM	–	> 100 µM	–	–	–	> 100 µM	180 µM	136 µM	> 100 µM	186 µM	5.11 µM	247 µM	0.03 µM	30.5 µM	> 100 µM	> 10 µM	–
Cn1c(SCC(=O)c2ccc(F)cc2)nc2sc3c(c2c1=O)CCCC3 [HI302]	16 µM	–	> 100 µM	–	–	–	> 100 µM	0.078 µM	21.9 µM	0.0096 µM	18.7 µM	20.2 µM	26.6 µM	3.3 µM	22.9 µM	> 100 µM	> 10 µM	–
CCCCn1c(SCC(=O)c2ccccc2)nc2sc3c(c2c1=O)CCC3 [HI352]	109 µM	–	> 100 µM	–	–	–	0.03 µM	98.1 µM	74.7 µM	100 µM	84.5 µM	114 µM	100 µM	0.287 µM	73.8 µM	> 100 µM	> 10 µM	IC50 (PDE4D3; Table 9B): 20 µM
C=CCn1c(SCC(=O)c2ccc(Cl)s2)nc2sc(C)c(C)c2c1=O [HI499]	46 µM	–	2.67 µM	–	–	–	202 µM	48.8 µM	28.1 µM	35.7 µM	> 100 µM	441 µM	177 µM	0.69 µM	45.8 µM	> 100 µM	4.6 to 9.5 µM	–
C=CCn1c(SCC(=O)c2ccccc2)nc2scc(-c3ccccc3)c2c1=O [HI696]	0.0066 µM	–	> 100 µM	–	–	–	> 100 µM	> 100 µM	3.2 µM	> 100 µM	1.2 µM	3.75 µM	2.95 µM	2.6 µM	64.9 µM	> 100 µM	< 1 µM	IC50 (PDE4D2; Table 9B): 7.4 µM; IC50 (PDE4D3; Table 9B): 14 µM
C=C(C)Cn1c(SCC(=O)c2ccc(F)cc2)nc2sc3c(c2c1=O)CCCC3 [HI0863]	4.46 µM	–	> 100 µM	–	–	–	47.7 µM	2.38 µM	0.078 µM	42.8 µM	3.12 µM	12.2 µM	39.8 µM	5.4 µM	38.8 µM	> 100 µM	2.44 µM	–
